Measured values: patent publication US7964560B2, “Hepatitis C virus inhibitors” (Bristol-Myers Squibb Company, priority 2008, dated 2011)

Experiments:
[1] = target: T1, HCV NS3/4A protease complex, H77 strain (Hepatitis C virus genotype 1a, UniProt P27958, C1454S/C1711G); assay: FRET peptide assay to monitor HCV NS3/4A proteolytic activity (H77 strain); format: biochemical, Hepatitis C virus (1a genotype)
T1 construct: DNA encoding the recombinant HCV NS3/4A protease complex (amino acids 1027 to 1711) for these strains; His tag (inferred from pET21b vector and Ni-NTA purification); made in house; host or cells: Escherichia coli BL21 (DE3), pET21b
Source text: HCV […] protease complexes, derived from the BMS strain, H77 strain or J4L6S strain, were generated, as described below. These purified recombinant proteins were generated for use in a homogeneous assay (see below) to provide an indication of how effective compounds of the present disclosure would be in inhibiting HCV NS3 proteolytic activity.
Serum from an HCV-infected patient was obtained from Dr. T. Wright, San Francisco Hospital. An engineered full-length cDNA (compliment deoxyribonucleic acid) template of the HCV genome (BMS strain) was constructed from DNA fragments obtained by reverse transcription-PCR (RT-PCR) of serum RNA (ribonucleic acid) and using primers selected on the basis of homology between other genotype 1a strains. From the determination of the entire genome sequence, a genotype 1a was assigned to the HCV isolate according to the classification of Simmonds et al. (See Simmonds, P. et al., J. Clin. Microbiol., 31(6), 1493-1503 (1993)). […] The infectious clones, H77 (1a genotype) and J4L6S (1b genotype) were obtained from R. Purcell (NIH) and the sequences are published in GENBANK® (AAB67036, see Yanagi, M. et al., Proc. Natl. Acad. Sci. U.S.A., 94(16):8738-8743 (1997); AF054247, see Yanagi, M. et al., Virology, 244(1):161-172 (1998)).
The H77 and J4L6S strains were used for production of recombinant NS3/4A protease complexes. […]

[2] = target: T2, human neutrophil elastase (HNE) (Homo sapiens, UniProt P08246); assay: Specificity assay, human neutrophil elastase; format: biochemical; settings: read-out: HLE (specificity assay IC50)
T2 construct: purchased Sigma, EMDbiosciences
T2 sequence (P08246 30-267): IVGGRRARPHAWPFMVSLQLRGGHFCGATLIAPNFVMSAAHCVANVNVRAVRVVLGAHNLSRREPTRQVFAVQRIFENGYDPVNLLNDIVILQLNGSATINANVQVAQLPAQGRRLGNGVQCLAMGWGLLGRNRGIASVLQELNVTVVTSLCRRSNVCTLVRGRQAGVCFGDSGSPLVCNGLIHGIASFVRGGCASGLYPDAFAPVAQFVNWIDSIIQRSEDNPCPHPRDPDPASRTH
Experimental: (§1) The specificities of compounds of the present disclosure were determined against a variety of serine proteases: human neutrophil elastase (HNE), porcine pancreatic elastase (PPE) and human pancreatic chymotrypsin and one cysteine protease: human liver cathepsin B. In all cases a 96-well plate format protocol using a fluorometric Amino-Methyl-Coumarin (AMC) substrate specific for each enzyme was used as described previously (PCT Patent Application No. WO 00/09543) with some modifications to the serine protease assays. All enzymes were purchased from Sigma, EMDbiosciences while the substrates were from Bachem, Sigma and EMDbiosciences.
(§2) Compound concentrations varied from 100 to 0.4 μM depending on their potency. The enzyme assays were each initiated by addition of substrate to enzyme-inhibitor pre-incubated for 10 min at room temperature and hydrolysis to 15% conversion as measured on CYTOFLUOR®.
(§3) 50 mM Tris-HCl, pH 8.0, 50 mM NaCl, 0.1 mM […], 3% DMSO, 0.02% Tween-20, 5 μM succ-AAPV-AMC and 20 nM HNE or 8 nM PPE;
(§4) The percentage of inhibition was calculated using the formula: [1−((UVinh−UVblank)/(UVctl−UVblank))]×100
(§5) A non-linear curve fit was applied to the inhibition-concentration data, and the 50% effective concentration (IC50) was calculated by the use of Excel XLfit software.

[3] = target: T3, porcine pancreatic elastase (PPE) (Sus scrofa, UniProt P00772); assay: Specificity assay, porcine pancreatic elastase; format: biochemical
T3 construct: purchased Sigma, EMDbiosciences
Experimental: as §1, §2, §3, §4, §5

T1 sequence (P27958 1027-1711 C1454S/C1711G, one chain of several): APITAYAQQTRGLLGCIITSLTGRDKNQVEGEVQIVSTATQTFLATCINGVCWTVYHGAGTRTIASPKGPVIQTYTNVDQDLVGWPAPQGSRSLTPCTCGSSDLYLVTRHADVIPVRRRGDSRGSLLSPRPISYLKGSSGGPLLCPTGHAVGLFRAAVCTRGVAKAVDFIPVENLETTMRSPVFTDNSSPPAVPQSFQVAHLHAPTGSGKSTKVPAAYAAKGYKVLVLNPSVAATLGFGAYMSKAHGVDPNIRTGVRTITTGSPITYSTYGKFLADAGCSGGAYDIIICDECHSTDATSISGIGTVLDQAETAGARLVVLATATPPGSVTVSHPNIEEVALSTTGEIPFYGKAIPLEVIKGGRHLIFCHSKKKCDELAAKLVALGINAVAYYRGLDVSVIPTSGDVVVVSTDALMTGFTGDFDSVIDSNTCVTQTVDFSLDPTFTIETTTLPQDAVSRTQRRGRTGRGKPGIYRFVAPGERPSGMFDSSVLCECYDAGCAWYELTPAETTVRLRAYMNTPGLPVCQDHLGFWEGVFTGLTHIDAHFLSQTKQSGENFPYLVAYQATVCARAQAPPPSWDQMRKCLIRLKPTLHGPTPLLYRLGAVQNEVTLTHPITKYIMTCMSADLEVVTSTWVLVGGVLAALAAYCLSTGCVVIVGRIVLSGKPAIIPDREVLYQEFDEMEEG
T3 sequence (P00772 27-266): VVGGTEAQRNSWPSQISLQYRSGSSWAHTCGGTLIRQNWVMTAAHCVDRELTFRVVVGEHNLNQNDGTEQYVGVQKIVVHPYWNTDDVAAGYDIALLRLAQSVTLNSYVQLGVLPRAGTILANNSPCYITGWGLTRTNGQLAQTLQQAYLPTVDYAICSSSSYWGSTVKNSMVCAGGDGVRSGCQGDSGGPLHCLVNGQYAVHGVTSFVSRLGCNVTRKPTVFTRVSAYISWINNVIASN

Question: What does the source list for `C=C[C@@H]1C[C@]1(NC(=O)[C@@H]1C[C@@](SCCCC)(c2ccc(-c3ccccc3)cc2)CN1C(=O)[C@@H](NC(=O)OC(C)(C)C)C(C)(C)C)C(=O)NS(=O)(=O)C1CC1` [Example 1, tert-butyl (S)-1-((2S,4R)-4-(biphenyl-4-yl)-4-(butylthio)-2-((1R,2S)-1-(cyclopropylsulfonylcarbamoyl)-2-vinylcyclopropylcarbamoyl)pyrrolidin-1-yl)-3,3-dimethyl-1-oxobutan-2-ylcarbamate]?
Answer: IC50 [1]: 0.0017 µM; IC50 [2]: > 12.1 µM; IC50 [3]: > 25 µM
